Assay results taken from patent publication US9402848B2, “Method for treating pain syndrome and other disorders” (VM Therapeutics LLC, priority 2008, dated 2016).

Legend:
[1] = tested on: Formalin induced pain in rat animal models of hyperalgesia; experiment: Rat Formalin Paw Test; type: in vivo; settings: FIG. 1
Experimental: Rat Formalin Paw Test (in Vivo Assay): Compounds were assessed for their ability to inhibit the behavioral response evoked by an injection of formalin (50 μl of 5% formalin). A metal band was affixed to the left hind paw of male Holtzman rats (225-250 g, Harlan Industries, Indianapolis Ind.) and each rat was conditioned to the band for 60 min within a plastic cylinder (15 cm diameter). Rats were dosed with either vehicle, positive control compound or a test compound either before (local) or after (systemic) formalin challenge. For local administration, compounds were prepared in either a 1:1.5 vehicle of saline (in mL) and (D)- or (L)-Tartaric acid (in mg), or a 1:1:6 vehicle of DMA (N,N-Dimethylacetamide), Tween 80 and saline, and injected […] into the dorsal surface of the right hind paw of the rat 60 min prior to formalin. The number of flinches was counted continuously for 60 min using an automated nociception analyzer (UCSD Anesthesiology Research, San Diego, Calif.). Statistical significance was determined by comparing the total flinches detected in the early (0-10 min, Phase I) and late (11-60 min) phase with an unpaired t-test. […]

[2] = tested on: Carrageenan-induced pain in rat animal model of hyperalgesia; experiment: Carrageenan-induced pain in rat animal model of hyperalgesia; type: in vivo; settings: FIG. 2 and FIG. 3

Cc1nc2ccccn2c(=O)c1CCN1CCC(C(=O)c2ccc(F)cc2)CC1 [Compound 10, 3-(2-{4-[(4-fluorophenyl)carbonyl]piperidin-1-yl}ethyl)-2-methyl-4H-pyrido[1,2-a]pyrimidin-4-one]
reduction of Formalin induced pain [1]: reduction of Formalin induced pain | reduction of Carrageenan-induced pain [2]: reduction of Carrageenan-induced pain
